Assay results published in ChEMBL document CHEMBL5352479, “Prenylated flavonoids with significant anti-hepatoma activity from Daphne giraldii and effects on Fibroblast Growth Factor Receptor 1 (FGFR1)” (Eur J Med Chem, 2023).
pIC50: −log10 of the molar value.

Legend:
HepG2 = test: Cytotoxicity against human HepG2 cells assessed as inhibition of cell proliferation incubated for 48 hrs by MTT assay; assay type: functional, cell-based; conditions: HepG2, 48 h
Hep 3B2 [1] = test: Cytotoxicity against human Hep3B cells assessed as inhibition of cell proliferation incubated for 48 hrs by MTT assay; assay type: functional, cell-based
Hep 3B2 [2] = test: Induction of apoptosis in human Hep3B cells assessed as late apoptotic cells at 3 uM incubated for 48 hrs by Annexin V-FITC/PI staining based flow cytometry analysis (reference value: 0.117%); assay type: functional
Hep 3B2 [3] = test: Induction of apoptosis in human Hep3B cells assessed as early apoptotic cells at 3 uM incubated for 48 hrs by Annexin V-FITC/PI staining based flow cytometry analysis (reference value: 4.54%); assay type: functional
Hep 3B2 [4] = test: Induction of apoptosis in human Hep3B cells assessed as necrotic cells at 3 uM incubated for 48 hrs by Annexin V-FITC/PI staining based flow cytometry analysis (reference value: 0%); assay type: functional
Hep 3B2 [5] = test: Induction of apoptosis in human Hep3B cells assessed as viable cells at 3 uM incubated for 48 hrs by Annexin V-FITC/PI staining based flow cytometry analysis (reference value: 95.3%); assay type: functional; conditions: read-out: Activity
Hep 3B2 [6] = test: Induction of apoptosis in human Hep3B cells assessed as necrotic cells at 3 uM incubated for 48 hrs by Annexin V-FITC/PI staining based flow cytometry analysis (reference value: 6.12%); assay type: functional
Hep 3B2 [7] = test: Induction of apoptosis in human Hep3B cells assessed as late apoptotic cells at 3 uM incubated for 48 hrs by Annexin V-FITC/PI staining based flow cytometry analysis (reference value: […]%); assay type: functional
Hep 3B2 [8] = test: Induction of apoptosis in human Hep3B cells assessed as early apoptotic cells at 3 uM incubated for 48 hrs by Annexin V-FITC/PI staining based flow cytometry analysis (reference value: 1.26%); assay type: functional
Hep 3B2 [9] = test: Induction of apoptosis in human Hep3B cells assessed as viable cells at 3 uM incubated for 48 hrs by Annexin V-FITC/PI staining based flow cytometry analysis (reference value: 87.1%); assay type: functional; conditions: read-out: Activity

Row | SMILES | pIC50 (HepG2) | pIC50 (Hep 3B2 [1]) | other results
1 | COc1c(-c2ccc(O)c(O)c2)oc2c(C/C=C(\C)CCC=C(C)C)c(O)cc(O)c2c1=O | 4.52 | 5.32 | –
2 | COc1c(-c2ccc(O)c(CC=C(C)C)c2)oc2c(CC=C(C)C)c(O)cc(O)c2c1=O | < 4.30 | 5.64 | Activity (Hep 3B2 [2]): 10.7%; Activity (Hep 3B2 [3]): 37.4%; Activity (Hep 3B2 [4]): 0.097%; viability at 3 µM (Hep 3B2 [5]): 51.9%
3 | COc1c(-c2ccc(O)c(O)c2)oc2c(CC=C(C)C)c(O)cc(O)c2c1=O | < 4.30 | 5.62 | –
4 | COc1c(-c2cc(O)c(O)c(CC=C(C)C)c2)oc2c3c(cc(O)c2c1=O)OC(C(C)(C)O)C3 (centres undefined) | < 4.30 | 5.44 | –
5 | COc1c(-c2cc(O)c3c(c2)CC(C(C)(C)O)O3)oc2c(CC=C(C)C)c(O)cc(O)c2c1=O (centres undefined) | 4.32 | 6.31 | Activity (Hep 3B2 [6]): 2.55%; Activity (Hep 3B2 [7]): 48.2%; Activity (Hep 3B2 [8]): 15.4%; viability at 3 µM (Hep 3B2 [9]): 33.8%
6 | CC1(C)Oc2ccc(-c3oc4cc(O)cc(O)c4c(=O)c3O)cc2CC1O (centres undefined) | < 4.30 | 5.02 | –
7 | C=C(C)C(O)Cc1cc(-c2oc3c(CC=C(C)C)c(O)cc(O)c3c(=O)c2OC)cc(O)c1O (centres undefined) | < 4.30 | 5.98 | Activity (Hep 3B2 [6]): 2.75%; Activity (Hep 3B2 [7]): 76%; Activity (Hep 3B2 [8]): 6.97%; viability at 3 µM (Hep 3B2 [9]): 14.2%
8 | CC(C)=CCc1cc(-c2oc3c(CC=C(C)C)c(O)cc(O)c3c(=O)c2O)ccc1O [BROUSSOFLAVONOL F] | 4.51 | 5.94 | Activity (Hep 3B2 [2]): 25.5%; Activity (Hep 3B2 [3]): 19.1%; Activity (Hep 3B2 [4]): 0.251%; viability at 3 µM (Hep 3B2 [5]): 55.1%
9 | COc1c(-c2cc(O)c(O)c(CC=C(C)C)c2CC=C(C)C)oc2cc(O)cc(O)c2c1=O | 4.41 | 4.47 | –
10 | CC(C)=CCc1cc([C@H]2Oc3c(CC=C(C)C)c(O)cc(O)c3C(=O)[C@@H]2O)cc(CC=C(C)C)c1O | < 4.30 | < 4.30 | –
11 | COc1c(-c2ccc(O)c(O)c2)oc2c(CC=C(C)C)c(O)c(CC=C(C)C)c(O)c2c1=O | 4.36 | 4.75 | –
12 | COc1c(-c2cc(O)c(O)c(CC=C(C)C)c2)oc2c(CC=C(C)C)c(O)cc(O)c2c1=O | 4.49 | 5.97 | Activity (Hep 3B2 [2]): 9.35%; Activity (Hep 3B2 [3]): 41.2%; Activity (Hep 3B2 [4]): 0.121%; viability at 3 µM (Hep 3B2 [5]): 49.3%
13 | COc1c(-c2ccc(O)c(O)c2)oc2c3c(c(CC=C(C)C)c(O)c2c1=O)OC(C(C)(C)O)C3 (centres undefined) | 4.57 | 5.05 | –
14 | CC(C)=CCc1cc([C@@H]2Oc3c(CC=C(C)C)c(O)cc(O)c3C(=O)[C@H]2O)cc(CC=C(C)C)c1O | < 4.30 | < 4.30 | –
15 | CC(C)=CCc1cc([C@H]2Oc3cc(O)ccc3C[C@H]2O)cc(CC=C(C)C)c1O | < 4.30 | < 4.30 | –
16 | C=C(C)C(O)Cc1c(O)c(CC=C(C)C)c2oc(-c3ccc(O)c(O)c3)c(OC)c(=O)c2c1O (centres undefined) | < 4.30 | 4.43 | –
17 | CC(C)=CCc1cc(-c2oc3cc(O)cc(O)c3c(=O)c2O)ccc1O [ISOLICOFLAVONOL] | 4.35 | 4.94 | –
18 | COc1c(-c2cc(O)c3c(c2)CC(O)C(C)(C)O3)oc2c(CC=C(C)C)c(O)cc(O)c2c1=O (centres undefined) | 4.31 | 6.20 | Activity (Hep 3B2 [6]): 2.34%; Activity (Hep 3B2 [7]): 52.4%; Activity (Hep 3B2 [8]): 21.9%; viability at 3 µM (Hep 3B2 [9]): 23.3%
19 | CC1(C)C=Cc2cc(-c3oc4cc(O)cc(O)c4c(=O)c3O)cc(O)c2O1 | < 4.30 | 4.55 | –
20 | C=C(C)C(O)Cc1cc(-c2oc3c(CC=C(C)C)c(O)cc(O)c3c(=O)c2OC)ccc1O (centres undefined) | 4.37 | 6.39 | Activity (Hep 3B2 [6]): 0.923%; Activity (Hep 3B2 [7]): 19.7%; Activity (Hep 3B2 [8]): 19.6%; viability at 3 µM (Hep 3B2 [9]): 59.7%
21 | CNC(=O)c1cc(Oc2ccc(NC(=O)Nc3ccc(Cl)c(C(F)(F)F)c3)cc2)ccn1 [SORAFENIB] | – | 5.07 | –
22 | COc1c(-c2ccc(O)c(CC=C(C)C)c2)oc2cc(O)cc(O)c2c1=O | 4.30 | 6.00 | Activity (Hep 3B2 [6]): 2.29%; Activity (Hep 3B2 [7]): 8.68%; Activity (Hep 3B2 [8]): 1.97%; viability at 3 µM (Hep 3B2 [9]): 87.1%
23 | COC1=C(c2ccc(O)cc2)Oc2c(CC=C(C)C)c(O)cc(O)c2C1O (centres undefined) | 4.87 | 5.40 | –
24 | COc1c(-c2cc3c(c(O)c2CC=C(C)C)OC(C)(C)C=C3)oc2c(CC=C(C)C)c(O)cc(O)c2c1=O | 4.51 | 5.20 | –
